In brackets after ≈: the same amount, converted by molar mass.
Experiments:
E. coli R477-100 = experiment: MIC, double-microdilution, E. coli R477-100; type: cell-based, Escherichia coli
E. coli ATCC 25922 = experiment: MIC, double-microdilution, E. coli ATCC 25922; type: cell-based, Escherichia coli; details: for MIC E. coli ATCC 25922: Table 4; for MIC E. coli 25922: Table 6
E. coli AG100B = experiment: MIC, double-microdilution, E. coli AG100B; type: cell-based, Escherichia coli
Source text: AG100B and AG100A are two kanamycin resistant Escherichia coli strains expressing APH(3′)-I aminoglycoside resistance enzyme.

E. coli AG100A = experiment: MIC, double-microdilution, E. coli AG100A; type: cell-based, Escherichia coli
B. subtilis ATCC 6633 = experiment: MIC, double-microdilution, B. subtilis ATCC 6633; type: cell-based; details: for MIC B. subtilis ATCC 6633: Table 4; for MIC Bacillus subtilis: Table 6
MRSA ATCC 43300 = experiment: microbe, parasite or virus in culture; type: cell-based, S. aureus; details: Table 4
E. coli XL1 blue/pET9d = experiment: microbe, parasite or virus in culture; type: cell-based; details: Table 6
Procedure: (§1) For this purpose, exemplary conjugates, according to some embodiments of the present invention, were tested against five isogenic E. coli strains. E. coli (pSF815) and E. coli (pET9d) are laboratory resistant strains derived by transformation of E. coli XL1 blue (background strain) with the pSF815 and pET9d plasmids, respectively. […] The last two isogenic strains used were E. coli BL21 (background strain) and E. coli (pETSACG1). […] These three enzymes are among the most prevalent modes of resistance found in aminoglycosides resistance strains.
(§2) The MIC ratios were calculated by dividing the MIC value against resistant strain to that against the respective background strain.

E. coli XL1 blue = experiment: microbe, parasite or virus in culture; type: cell-based; details: Table 6
Procedure: as §1, §2

[1] = Table 4, kanamycin resistant, APH(3′)-I

Compound | MIC E. coli R477-100 (E. coli R477-100; Table 4) | MIC E. coli ATCC 25922 (E. coli ATCC 25922) | MIC E. coli AG100B (E. coli AG100B; [1]) | MIC E. coli AG100A (E. coli AG100A; [1]) | MIC B. subtilis ATCC 6633 (B. subtilis ATCC 6633) | MIC MRSA ATCC 43300 (MRSA ATCC 43300) | also measured
NCC1OC(OC2C(C(=O)NCc3cn(CCCCCN4CCN(c5cc6c(cc5F)c(=O)c(C(=O)O)cn6C5CC5)CC4)nn3)OC(OC3C(O)C(N)CC(N)C3OC3OC(CN)C(O)C(O)C3N)C2O)C(N)C(O)C1O (stereo not shown) [Compound 1l, N-((1-(4-(ciprofloxacin)pentyl)-1H-1,2,3-triazol-4-yl)-5″-methyl)neomycin carboxamide] | 24 µg/mL (≈ 21.7 µM) | 6 µg/mL (≈ 5.41 µM) | 24 µg/mL (≈ 21.7 µM) | 1.5 µg/mL (≈ 1.35 µM) | 12 µg/mL (≈ 10.8 µM) | 48 µg/mL (≈ 43.3 µM) | –
NCC1OC(OC2C(C(=O)Nc3ccc(-c4cn(CCCCCCN5CCN(c6cc7c(cc6F)c(=O)c(C(=O)O)cn7C6CC6)CC5)nn4)cc3)OC(OC3C(O)C(N)CC(N)C3OC3OC(CN)C(O)C(O)C3N)C2O)C(N)C(O)C1O (stereo not shown) [Compound 1e, N-(4-(1-(2-(ciprofloxacin)hexyl)-1H-1,2,3-triazol-4-yl)-5″-phenyl)neomycin carboxamide] | 6 µg/mL (≈ 5.07 µM) | 6 µg/mL (≈ 5.07 µM) | 12 µg/mL (≈ 10.1 µM) | 1.5 µg/mL (≈ 1.27 µM) | 12 µg/mL (≈ 10.1 µM) | 48 µg/mL (≈ 40.5 µM) | –
NCC1OC(OC2C(C(=O)NCc3cn(CCN4CCN(c5cc6c(cc5F)c(=O)c(C(=O)O)cn6C5CC5)CC4)nn3)OC(OC3C(O)C(N)CC(N)C3OC3OC(CN)C(O)C(O)C3N)C2O)C(N)C(O)C1O (stereo not shown) [Compound 1j, N-((1-(4-(ciprofloxacin)ethyl)-1H-1,2,3-triazol-4-yl)-5″-methyl)neomycin carboxamide] | 12 µg/mL (≈ 11.3 µM) | 6 µg/mL (≈ 5.63 µM) | 12 µg/mL (≈ 11.3 µM) | 1.5 µg/mL (≈ 1.41 µM) | 3 µg/mL (≈ 2.81 µM) | 24 µg/mL (≈ 22.5 µM) | –
NCC1OC(OC2C(C(=O)NCc3cn(CCOCCN4CCN(c5cc6c(cc5F)c(=O)c(C(=O)O)cn6C5CC5)CC4)nn3)OC(OC3C(O)C(N)CC(N)C3OC3OC(CN)C(O)C(O)C3N)C2O)C(N)C(O)C1O (stereo not shown) [Compound 1n, N-((1-(2-(2-(ciprofloxacin)ethoxy)ethyl)-1H-1,2,3-triazol-4-yl)-5″-methyl)neomycin carboxamide] | 12 µg/mL (≈ 10.8 µM) | 6 µg/mL (≈ 5.4 µM) | 12 µg/mL (≈ 10.8 µM) | 1.5 µg/mL (≈ 1.35 µM) | 12 µg/mL (≈ 10.8 µM) | 24 µg/mL (≈ 21.6 µM) | –
NCC1OC(OC2C(C(=O)Nc3ccc(-c4cn(CCOCCN5CCN(c6cc7c(cc6F)c(=O)c(C(=O)O)cn7C6CC6)CC5)nn4)cc3)OC(OC3C(O)C(N)CC(N)C3OC3OC(CN)C(O)C(O)C3N)C2O)C(N)C(O)C1O (stereo not shown) [Compound 1g, N-(4-(1-(2-(2-(ciprofloxacin)ethoxy)ethyl)-1H-1,2,3-triazol-4-yl)-5″-phenyl)neomycin carboxamide] | 24 µg/mL (≈ 20.5 µM) | 12 µg/mL (≈ 10.2 µM) | 12 µg/mL (≈ 10.2 µM) | 1.5 µg/mL (≈ 1.28 µM) | 12 µg/mL (≈ 10.2 µM) | 24 µg/mL (≈ 20.5 µM) | –
NCC1OC(OC2C(C(=O)Nc3ccc(-c4cn(CCCCCN5CCN(c6cc7c(cc6F)c(=O)c(C(=O)O)cn7C6CC6)CC5)nn4)cc3)OC(OC3C(O)C(N)CC(N)C3OC3OC(CN)C(O)C(O)C3N)C2O)C(N)C(O)C1O (stereo not shown) [Compound 1d, N-(4-(1-(2-(ciprofloxacin)pentyl)-1H-1,2,3-triazol-4-yl)-5″-phenyl)neomycin carboxamide] | 12 µg/mL (≈ 10.3 µM) | 6 µg/mL (≈ 5.13 µM) | 24 µg/mL (≈ 20.5 µM) | 1.5 µg/mL (≈ 1.28 µM) | 12 µg/mL (≈ 10.3 µM) | 48 µg/mL (≈ 41 µM) | –
N-(4-(1-(4-((ciprofloxacin)methyl)benzyl)-1H-1,2,3-triazol-4-yl)-5″-phenyl)neomycin carboxamide [Compound 1h] | 6 µg/mL | 12 µg/mL | 12 µg/mL | 1.5 µg/mL | 6 µg/mL | 12 µg/mL | –
NCC1OC(OC2C(N)CC(NCc3cn(Cc4ccc(CN5CCN(c6cc7c(cc6F)c(=O)c(C(=O)O)cn7C6CC6)CC5)cc4)nn3)C(OC3OC(CO)C(O)C(N)C3O)C2O)C(O)C(O)C1O (stereo not shown) [Compound 11i, 4-(1-N-kanamycinmethyl)-1-(4-((ciprofloxacin)methyl)benzyl)-1H-1,2,3-triazole] | – | – | – | – | – | – | MIC E. coli R477-100 (E. coli R477-100; Table 6): 6 µg/mL (≈ 6.01 µM); MIC E. coli 25922 (E. coli ATCC 25922): 6 µg/mL (≈ 6.01 µM); MIC E. coli AG100B (E. coli AG100B; Table 6): 12 µg/mL (≈ 12 µM); MIC E. coli AG100A (E. coli AG100A; Table 6): 0.75 µg/mL (≈ 0.751 µM); MIC Bacillus subtilis (B. subtilis ATCC 6633): 3 µg/mL (≈ 3 µM); MIC E. coli XL1 blue/pET9d-aph(3′)-Ia (E. coli XL1 blue/pET9d): 3 μg/ml; MIC E. coli XL1 blue (E. coli XL1 blue): 3 µg/mL (≈ 3 µM)
NCC1O[C@@H](O[C@H]2C(N)C[C@H](NCc3cn(CCN4CCN(c5cc6c(cc5F)c(=O)c(C(=O)O)cn6C5CC5)CC4)nn3)C(OC3O[C@@H](CO)C(O)C(N)[C@@H]3O)C2O)C(O)C(O)[C@H]1O (stereo partly shown) [Compound 11a, 4-(1-N-kanamycinmethyl)-1-(2-(ciprofloxacin)ethyl)-1H-1,2,3-triazole] | – | – | – | – | – | – | MIC (E. coli R477-100; Escherichia coli, R477100, read-out: MIC E. Coli R477-100): 6 µg/mL (≈ 6.5 µM); MIC (E. coli ATCC 25922; Escherichia coli, ATCC25922, read-out: MIC E. coli 25922): 3 µg/mL (≈ 3.25 µM); MIC (E. coli AG100B; Escherichia coli, AG100B, read-out: MIC E. coli AG100B, Table 6): 12 µg/mL (≈ 13 µM); MIC (E. coli AG100A; Escherichia coli, AG100A, read-out: MIC E. coli AG100A, Table 6): 0.75 µg/mL (≈ 0.813 µM); MIC (B. subtilis ATCC 6633; Bacillus subtilis, ATCC6633, read-out: MIC Bacillus subtilis): 1.5 µg/mL (≈ 1.63 µM); MIC (E. coli XL1 blue/pET9d; Escherichia coli, XL1BLUE/PET9D, read-out: MIC E. coli XL1 blue/pET9d-aph(3′)-Ia): 6 µg/mL (≈ 6.5 µM); MIC (E. coli XL1 blue; Escherichia coli, XL1BLUE, read-out: MIC E. coli XL1 blue): 6 µg/mL (≈ 6.5 µM)
NCC1OC(OC2C(C(=O)Nc3ccc(-c4cn(CCCN5CCN(c6cc7c(cc6F)c(=O)c(C(=O)O)cn7C6CC6)CC5)nn4)cc3)OC(OC3C(O)C(N)CC(N)C3OC3OC(CN)C(O)C(O)C3N)C2O)C(N)C(O)C1O (stereo not shown) [Compound 1b, N-(4-(1-(2-(ciprofloxacin)propyl)-1H-1,2,3-triazol-4-yl)-5″-phenyl)neomycin carboxamide] | 6 µg/mL (≈ 5.25 µM) | 3 µg/mL (≈ 2.63 µM) | 12 µg/mL (≈ 10.5 µM) | 1.5 µg/mL (≈ 1.31 µM) | 6 µg/mL (≈ 5.25 µM) | 48 µg/mL (≈ 42 µM) | –
NC[C@H]1O[C@H](O[C@H]2[C@H](O)[C@@H](O[C@H]3O[C@H](CO)[C@@H](O)[C@H](N)[C@H]3O)[C@H](N)C[C@@H]2N)[C@H](O)[C@@H](O)[C@@H]1O [KanA, kanamycin A, reference compound] | – | – | – | – | – | – | MIC E. coli R477-100 (E. coli R477-100; Table 6): 24 µg/mL (≈ 49.5 µM); MIC E. coli 25922 (E. coli ATCC 25922): 12 µg/mL (≈ 24.8 µM); MIC E. coli AG100B (E. coli AG100B; Table 6): >384 µg/mL; MIC E. coli AG100A (E. coli AG100A; Table 6): 384 µg/mL (≈ 793 µM); MIC Bacillus subtilis (B. subtilis ATCC 6633): 1.5 µg/mL (≈ 3.1 µM); MIC E. coli XL1 blue/pET9d-aph(3′)-Ia (E. coli XL1 blue/pET9d): >384 μg/ml; MIC E. coli XL1 blue (E. coli XL1 blue): 3 µg/mL (≈ 6.19 µM)
NCC1OC(OC2C(C(=O)Nc3ccc(-c4cn(CCCCN5CCN(c6cc7c(cc6F)c(=O)c(C(=O)O)cn7C6CC6)CC5)nn4)cc3)OC(OC3C(O)C(N)CC(N)C3OC3OC(CN)C(O)C(O)C3N)C2O)C(N)C(O)C1O (stereo not shown) [Compound 1c, N-(4-(1-(2-(ciprofloxacin)butyl)-1H-1,2,3-triazol-4-yl)-5″-phenyl)neomycin carboxamide] | 12 µg/mL (≈ 10.4 µM) | 6 µg/mL (≈ 5.19 µM) | 24 µg/mL (≈ 20.8 µM) | 1.5 µg/mL (≈ 1.3 µM) | 6 µg/mL (≈ 5.19 µM) | 24 µg/mL (≈ 20.8 µM) | –
NCC1OC(OC2C(N)CC(NCc3cn(CC(O)CN4CCN(c5cc6c(cc5F)c(=O)c(C(=O)O)cn6C5CC5)CC4)nn3)C(OC3OC(CO)C(O)C(N)C3O)C2O)C(O)C(O)C1O (stereo not shown) [Compound 11f, 1-(4-(1-N-kanamycinmethyl)-1H-1,2,3-triazol-1-yl)-3-(ciprofloxacin)propan-2-ol] | – | – | – | – | – | – | MIC E. coli R477-100 (E. coli R477-100; Table 6): 3 µg/mL (≈ 3.15 µM); MIC E. coli 25922 (E. coli ATCC 25922): 1.5 µg/mL (≈ 1.57 µM); MIC E. coli AG100B (E. coli AG100B; Table 6): 6 µg/mL (≈ 6.3 µM); MIC E. coli AG100A (E. coli AG100A; Table 6): 0.75 µg/mL (≈ 0.787 µM); MIC Bacillus subtilis (B. subtilis ATCC 6633): 1.5 µg/mL (≈ 1.57 µM); MIC E. coli XL1 blue/pET9d-aph(3′)-Ia (E. coli XL1 blue/pET9d): 3 μg/ml; MIC E. coli XL1 blue (E. coli XL1 blue): 3 µg/mL (≈ 3.15 µM)
NCC1OC(OC2C(C(=O)NCc3cn(CCCN4CCN(c5cc6c(cc5F)c(=O)c(C(=O)O)cn6C5CC5)CC4)nn3)OC(OC3C(O)C(N)CC(N)C3OC3OC(CN)C(O)C(O)C3N)C2O)C(N)C(O)C1O (stereo not shown) [Compound 1k, N-((1-(4-(ciprofloxacin)propyl)-1H-1,2,3-triazol-4-yl)-5″-methyl)neomycin carboxamide] | 12 µg/mL (≈ 11.1 µM) | 6 µg/mL (≈ 5.55 µM) | 12 µg/mL (≈ 11.1 µM) | 1.5 µg/mL (≈ 1.39 µM) | 6 µg/mL (≈ 5.55 µM) | 48 µg/mL (≈ 44.4 µM) | –
NCC1OC(OC2C(C(=O)Nc3ccc(-c4cn(CCN5CCN(c6cc7c(cc6F)c(=O)c(C(=O)O)cn7C6CC6)CC5)nn4)cc3)OC(OC3C(O)C(N)CC(N)C3OC3OC(CN)C(O)C(O)C3N)C2O)C(N)C(O)C1O (stereo not shown) [Compound 1a, N-(4-(1-(2-(ciprofloxacin)ethyl)-1H-1,2,3-triazol-4-yl)-5″-phenyl)neomycin] | 12 µg/mL (≈ 10.6 µM) | 6 µg/mL (≈ 5.32 µM) | 24 µg/mL (≈ 21.3 µM) | 0.75 µg/mL (≈ 0.665 µM) | 6 µg/mL (≈ 5.32 µM) | 48 µg/mL (≈ 42.5 µM) | –

From patent US9149536B2, “Conjugated antimicrobial agents” (priority 2009, dated 2015)
